From paper PMC13233288, “Spider venom peptides Ht1a and Gg1a are toxic to honeybee parasite Varroa destructor by topical application” (npj Drug Discovery, 2026)
Entries after “also recorded” stand apart in the source; their conditions may differ. No end group written: not given here.

Columns and labels:
[1] = test system: V. destructor mites; test: Topical varroa assay of venom fractions / purified native peptides; format: in vivo, Varroa destructor; details: native peptide / HPLC fraction; Ht1a three cohorts of 5 mites, Gg1a two cohorts of 5 mites
Experimental: An outline of the project discovery pipeline is presented in Supplementary Fig. 1. To identify varroacidal venom peptides, we screened venoms for activity against V. destructor by topical application. Topical tests were performed in several stages. First, whole venom was tested to determine mortality for V. destructor. Hit venoms were then subjected to several fractionation steps to isolate the active compounds. For the initial venom screen, a panel of 50 arthropod venoms (Table 1) were topically applied to V. destructor mites. Venoms were dissolved in 90% acetonitrile (v/v), and a 10 μg venom aliquot was applied per mite (n = 5 mites per venom). The dorsal plate of V. destructor mites (average mass 0.38 mg) was fixed to adhesive tape (ScotchTM 666 3 M; 19 × 32.9 mm, double sided) on microscope slides (ground edges 90° frosted end, 76 × 26 mm). A Nanoject II (Automatic Injector with Glass Capillaries, Drummond Cat.No. 3-000-205 A) was used for topical application of venom and control (90% acetonitrile) solutions. […] Mite mortality was determined at various time intervals up to 48 h after the treatment using an Olympus stereomicroscope (SZX10/SZX2 Series). […] The percentage of mite mortality for each venom was calculated at 2, 6 and 24 h, and adjusted by correcting for the mortality of the corresponding control group receiving only 90% acetonitrile. […]

[2] = test system: V. destructor mites; test: Topical application of synthetic peptides and oxalic acid to V. destructor mites; format: in vivo, Varroa destructor; details: 0.48 μg/mite in 0.5% Silwet (v/v); for earliest onset of mortality: 2-hourly recording between 0 and 48 h; for survival/mortality of V. destructor: n = 5 mites per group, up to 48 h, vs 0.5% Silwet control, two-way ANOVA, Dunnett
Experimental: An outline of the project discovery pipeline is presented in Supplementary Fig. 1. To identify varroacidal venom peptides, we screened venoms for activity against V. destructor by topical application. Topical tests were performed in several stages. First, whole venom was tested to determine mortality for V. destructor. Hit venoms were then subjected to several fractionation steps to isolate the active compounds. For the initial venom screen, a panel of 50 arthropod venoms (Table 1) were topically applied to V. destructor mites. Venoms were dissolved in 90% acetonitrile (v/v), and a 10 μg venom aliquot was applied per mite (n = 5 mites per venom). The dorsal plate of V. destructor mites (average mass 0.38 mg) was fixed to adhesive tape (ScotchTM 666 3 M; 19 × 32.9 mm, double sided) on microscope slides (ground edges 90° frosted end, 76 × 26 mm). A Nanoject II (Automatic Injector with Glass Capillaries, Drummond Cat.No. 3-000-205 A) was used for topical application of venom and control (90% acetonitrile) solutions. To accelerate solvent evaporation, the total volume of 483 nL was applied in seven aliquots of 69 nL each to the ventral plate of the mites between the posterior pair of legs. Each drop was allowed to dry before applying the next one, with the entire application procedure taking up to 1 h. Mite mortality was determined at various time intervals up to 48 h after the treatment using an Olympus stereomicroscope (SZX10/SZX2 Series). Initially, each mite was examined for movements of the legs, and immobile mites were stimulated with the tip of a wooden toothpick. Detection of static electricity by the mites, a few millimetres before the actual contact with the toothpick, was usually sufficient to trigger movement in mites that were still alive. […] At the later stage of the project, the slides with mites were placed into a self-constructed automated video monitoring system (using a USB camera) that employs an algorithm in OpenCV to subtract images from subsequent frames enabling the detection of changes in pixel intensity due to movements, for example of the extremities. Leg movements were stimulated with an air current applied over the mites at the time of image acquisition to determine mite mortality. The percentage of mite mortality for each venom was calculated at 2, 6 and 24 h, and adjusted by correcting for the mortality of the corresponding control group receiving only 90% acetonitrile.
The same procedure initially used for identifying varroacidal venoms was used for testing the topical activity of sHt1a and sGg1a. The peptides were dissolved in 0.5% Silwet L-77 (v/v), a silicone-based surfactant that is commonly used as a spreading agent for foliar sprays. 0.48 μg of peptide was topically applied to each mite, with n = 5 mites per treatment group. The activity of the sHt1a was confirmed using three cohorts of n = 5 mites, whereas the activity of sGg1a was confirmed using four cohorts of n = 5 mites. As a negative control, an equal volume of 0.5% Silwet (v/v) was topically applied (four cohorts of n = 5 mites), and 3% oxalic acid, a known varroacide used in commercial products[10] was used as positive control (eight cohorts of n = 5 mites). Mite mortality was recorded at 2-hourly intervals between 0 and 48 h after the treatment. For statistical analysis, mite survival data were plotted in Prism 10.0 (GraphPad Software, CA, USA), then a two-way ANOVA followed by Dunnett’s multiple comparisons test was performed, comparing the peptide and oxalic acid treatment against the respective 0.5% Silwet (v/v) control group data.

[3] = test system: hNaV1.5; test: Automated whole-cell patch clamp, hNaV1.5 + β1 in HEK 293 cells; format: cell-based, human; details: 3 μM, 50 ms pulse to −20 mV from −90 mV, ECS with 0.1% BSA, at least 2 min
Experimental: To examine for off-target activity on mammalian ion channels and receptors, we first tested the activity of sHt1a and Gg1a against human NaV channels. Whole-cell patch-clamp recordings were performed on Human Embryonic Kidney (HEK) 293 cells stably expressing human NaV1.4 or NaV1.5 in conjunction with the β1 subunit (SB Drug Discovery, Glasgow, United Kingdom) using a QPatch II automated electrophysiology platform (Sophion Bioscience, Ballerup, Denmark). Whole-cell currents were filtered at 8 kHz and acquired at 25 kHz. The linear leak was corrected by P/4 subtraction (leak potential −90 mV, leak sweep amplitude 10%). Series resistance across recorded cells ranged between 5 and 10 MΩ. The extracellular solution (ECS) consisted of (in mM): 145 NaCl, 4 KCl, 2 CaCl2, 1 MgCl2, 10 HEPES, and 10 glucose, adjusted to pH 7.4 with NaOH and to 305 mOsm/L with sucrose. The intracellular solution (ICS) consisted of (in mM): 140 CsF, 1 EGTA, 5 CsOH, 10 HEPES, and 10 NaCl, adjusted to pH 7.3 with CsOH and 320 mOsm/L with sucrose. Currents were elicited from a holding potential of −90 mV delivered with a 50 ms depolarising pulse to −20 mV every 20 s (0.05 Hz). Peptides were diluted in ECS containing 0.1% BSA and applied to cells for at least 2 min at the concentrations stated. Peak currents were normalised to the buffer control.

Row | Substance | topical varroacidal activity [1] | earliest onset of mortality [2] | survival/mortality of V. destructor [2] | survival/mortality of V. destructor ([2]; listed as sHt1a) | effect on hNaV1.5 currents [3] | effect on hNaV1.5 currents ([3]; listed as sHt1a) | survival/mortality of V. destructor ([2]; listed as sGg1a) | effect on hNaV1.5 currents ([3]; listed as sGg1a)
1 | KYCAPRKAVCNTPADCCDKSSRCAYPNYGLGYYLDSEFFGKRKICSWRL (also: bicyclic or more (positions not given here)) [Ht1a, μ-gradutoxin-Ht1a] | contained the varroacidal activity; also recorded: confirmed | 34 h | induced topical mortality; also recorded: reduced varroa mite but not honeybee survival; also recorded: lethal to varroa mites | significantly reduced the survival; also recorded: significantly reduced V. destructor survival | inactive | did not significantly affect | – | –
2 | U1-macrothelitoxin-Gg1a | topical varroacidal activity; also recorded: confirmed | 16 h | induced topical mortality; also recorded: reduced varroa mite but not honeybee survival; also recorded: lethal to varroa mites | – | inactive | – | significantly reduced the survival; also recorded: significantly reduced V. destructor survival | did not significantly affect
